In patent US20080108706A1, “Chemical resection of pancreas” (priority 1999, published 2008):
pIC50: −log10 of the molar value. Entries after “also recorded” stand apart in the source; their conditions may differ.

How the values were obtained:
[1] = test system: acinar-derived cell line AR42J; assay: Growth of AR42J cells, IC50 assays; type: cell-based
Description: (OH)2 DEHSPM was also tested in the acinar-derived cell line AR42J.

[2] = test system: Pancreatic Ductal Adenocarcinoma #03; assay: Evaluation against early stage pancreatic ductal adenocarcinoma #03 in BDF mice; type: in vivo
From the text: Male BDF mice (12 weeks old, weight approximately 28.9 g) were implanted with the pancreatic ductal cell carcinoma #03 3 days before beginning treatment with (HO)2DEHSPM.

[3] = Non-tumor-bearing toxicity controls, same regimens; type: in vivo; conditions: group 3, NTB; IV QD 3, 4, 6-9, 14, 17, 18; total dosage 240 mg/kg
[4] = Beagle study Part A: long-term toxicity and pancreatic function after (R,R)-(HO)2DEHSPM; type: in vivo, beagles; conditions: for SGPT / alkaline phosphatase: approximately 60-days post-drug
Description: (§1) Five male beagles approximately 6-8 months of age were obtained from Harlan Sprague Dawley. They were provided with food and water ad libitum and were allowed to acclimate to their new surroundings for two weeks. The animals were weighed prior to starting drug administration and were weighed once per week during the drug dosing period. A CBC and chemistry panel were performed every 1-2 weeks. The drug study was performed in two stages. In the first phase, three animals were given the drug at 2.15 mg/kg/day (dogs #516, 518 and 526). In the second phase, the other two dogs were given the drug at 4.3 mg/kg/day (dogs #490 and 494). In both experiments, the daily drug dose was divided and administered twice daily at 12-hour intervals.
(§2) The results of the long-term washout and subsequent toxicity of the (R,R)—(HO)2DEHSPM are summarized. Briefly, the drug was initially thought to be well tolerated at the 2.15 mg/kg/day dose. In order to compare the long-term washout of the (HO)2DEHSPM as compared to DEHSPM, it was decided not to sacrifice the animal (#516) until 75-days post-drug. […] Chronic pancreatitis or intestinal malabsorption was suspected. […] Inasmuch as the dog was imminently scheduled for sacrifice, no treatment was initiated. At necropsy 75-days post-drug, there was little, if any, abdominal fat and the animal's pancreas was atrophied as described below.
(§3) However, approximately 55-60 days post-drug, it was noted that although the dogs in the 4.3 mg/kg/day group (#490 and 494) were eating well and were bright, alert and responsive, they began losing weight (2 kg). […] In order to further confirm the exocrine pancreatic insufficiency, additional experiments were performed.
(§4) The two dogs (#490 and 494) were fed a prescription canned and dry dog food and were supplemented with Viokase, a pancreatic enzyme preparation, by mixing three tablets with food or by oral administration immediately before each feeding. The dogs were maintained on this regimen for approximately three weeks. During this time, their weight and blood chemistries were closely monitored. The Viokase supplementation was then stopped and the same parameters were again evaluated. One week after the Viokase administration had ceased, the animals were euthanized and tissues were taken for histology and for the determination of tissue polyamine levels.

[5] = test system: exocrine pancreas; assay: as above; type: in vivo, beagles
Description: as §1, §2, §3, §4

[6] = test system: exocrine pancreas; assay: Beagle study Part B: comparison of (R,R)- v. (S,S)-(HO)2DEHSPM; type: in vivo, beagles
From the text: As the pancreatic insufficiency side-effect that was observed after the administration of the (R,R)—(HO)2DEHSPM to the beagles may have been related to the (R,R)-chirality of the molecule, the (S,S)-enantiomer was synthesized and was compared in a head-to-head fashion with the (R,R)-enantiomer. To perform this experiment, five male beagles approximately 6-8 months of age were obtained from Harlan Sprague Dawley. There were provided with food and water ad libitum and were allowed to acclimate to their new surroundings for two weeks. The animals were weighed prior to starting drug administration and were weighed once per week during the drug dosing period. A CBC and chemistry panel and a Holter monitor were performed once per week. In addition to the usual tests, additional pancreatic function-specific tests were also performed. These additional evaluations included a fecal trypsin test, examination of the feces for fecal fat and serum trypsin-like immunoreactivity determinations. It was hoped that these signs of pancreatic insufficiency would only appear in the animals given the (R,R)-enantiomer and would not be observed in the dogs that were given the (S,S)-molecule. The pancreatic insufficiency may not become evident until approximately 7-8 weeks post-drug. At the conclusion of the experiment, all of the animals were sacrificed and the histology and tissue polyamine levels were determined.
Five male beagles approximately 6-8 months of age were obtained from Harlan Sprague Dawley. They were provided with food and water ad libitum and were allowed to acclimate to their new surroundings for two weeks. Once two sets of baseline data were obtained, the animals were randomly divided into three groups: two of the dogs (#468 and 500) received the (R,R)—(HO)2DEHSPM; two of the animals (#440 and 476) were given (S,S)—(HO)2DEHSPM; and one dog (#452) served as an untreated (saline only) control. The dogs were given the (R,R)—or (S,S)—(HO)2DEHSPM at a dose of 4.3 mg/kg/day subcutaneously in divided doses, 2.15 mg/kg BID.
The animals were weighed weekly during the acclimation period, the drug dosing period and throughout the post-drug observational period. A CBC, chemistry panel and pancreatic function tests (trypsin-like immunoreactivity, fecal trypsin, fecal fat, etc.) were performed once per week. Additional tests, e.g., glucose tolerance and fat absorption, were performed as necessary. The dogs were Holter monitored twice during the acclimation period and then weekly during drug dosing.

[7] = group 2, total dosage 240 mg/kg IV
[8] = group 4, total dosage 205 mg/kg IV
[9] = group 6, total dosage 102.5 mg/kg IV
[10] = dog #516, 2.15 mg/kg/day, approximately two months post-drug
[11] = dogs #490 and 494, 4.3 mg/kg/day, approximately 55-60 days post-drug
[12] = 4.3 mg/kg/day sc for 13 days, post-drug
[13] = approximately five weeks post-drug, 4.3 mg/kg/day sc for 13 days
[14] = dog #468, 4.3 mg/kg/day sc for 13 days
[15] = dog #500, 4.3 mg/kg/day sc for 13 days

Q: With `CCNCC[C@@H](O)CNCCCCNC[C@H](O)CCNCC.Cl.Cl.Cl.Cl` [(R,R)-(HO)2DEHSPM, N^1,N^14-Diethyl-3(R) 12(R)-dihydroxyhomospermine tetrahydrochloride] as the compound, how does the pIC50 ([1]; treatment period 4 days (= 1.33 doublings)) read?
A: 4.05

Q: What about the pIC50 ([1]; treatment period 6 days (= 2 doublings)) of the same compound?
A: 5.92

Q: What about the pIC50 ([1]; treatment period 12 days (= 4 doublings)) of the same compound?
A: 7.05

Q: What about the “Percent Body Wt. Loss” value ([2]; group 2, tumor-bearing, IV QD 3, 4, 6-9, 14, 17, 18, total dosage 240 mg/kg) of the same compound?
A: 38%

Q: And the “Drug Deaths (days of death)” value ([2]; group 2, tumor-bearing, total dosage 240 mg/kg IV)?
A: none of the mice died

Q: What about the Comments [2, 7] of the same compound?
A: Inactive

Q: What about the “Median Tumor Burden (mg) on day 18 (range)” value (from here on “Median Tumor Burden (mg)”) [2, 7] of the same compound?
A: 651 (138-1324) mg

Q: And the “Tumor Free on Day” value [2, 7]?
A: 0/5

Q: What about the T/C % ([2]; group 2, total dosage 240 mg/kg IV, tumor burden vs control) of the same compound?
A: 64%

Q: What about the “Percent Body Wt. Loss” value ([2]; group 4, tumor-bearing, IV QD 3-18, total dosage 205 mg/kg) of the same compound?
A: somewhat less dramatic

Q: What about the “Median Tumor Burden (mg)” value [2, 8] of the same compound?
A: 172 (63-965) mg

Q: What about the “T-C” value [2, 8] of the same compound?
A: 9 days

Q: What about the “Time to 1000 mg days (range)” value [2, 8] of the same compound?
A: 26.8 (18-28) days

Q: And the “Tumor Free on Day” value [2, 8]?
A: 0/5

Q: What about the “Log Kill” value ([2]; group 4, total dosage 205 mg/kg IV, Td = 3.5 days) of the same compound?
A: 0.8

Q: What about the “Percent Body Wt. Loss” value ([2]; group 6, tumor-bearing, IV QD 3-18, total dosage 102.5 mg/kg) of the same compound?
A: no significant weight loss

Q: And the Comments [2, 9]?
A: Inactive

Q: What about the “Median Tumor Burden (mg)” value [2, 9] of the same compound?
A: 617 (270-748) mg

Q: And the “Tumor Free on Day” value [2, 9]?
A: 0/5

Q: And the “Percent Body Wt. Loss” value [3]?
A: 30%

Q: And the SGPT ([4]; dog #490, 4.3 mg/kg/day)?
A: 1108 U/L

Q: What about the alkaline phosphatase ([4]; dog #490, 4.3 mg/kg/day) of the same compound?
A: 542 U/L

Q: What about the SGPT ([4]; dog #494, 4.3 mg/kg/day) of the same compound?
A: 776 U/L

Q: What about the alkaline phosphatase ([4]; dog #494, 4.3 mg/kg/day) of the same compound?
A: 436 U/L

Q: And the “SGPT (routine chemistry panel)” value [4, 10]?
A: elevated

Q: What about the “SGPT (blood chemistries)” value [4, 11] of the same compound?
A: elevated

Q: What about the pancreas at necropsy ([5]; 75-, 78-, 88- and 92-days post-treatment, all cases) of the same compound?
A: Severe atrophy

Q: And the “histopathology of pancreatic sample” value ([5]; 75-days post-treatment sample)?
A: moderate to severe pancreatitis

Q: What about the “trypsin-like immunoreactivity (TLI)” value ([5]; both dogs #490 and 494, 4.3 mg/kg/day, throughout Viokase and post-Viokase periods) of the same compound?
A: below 2.0 ng/ml

Q: What about the “serum trypsin-like immunoreactivity test” value ([5]; dog #516, 2.15 mg/kg/day) of the same compound?
A: confirmed the presence of exocrine pancreatic insufficiency

Q: And the pancreas at necropsy ([5]; dog #516, 2.15 mg/kg/day, 75-days post-drug)?
A: atrophied

Q: What about the body weight [5, 10] of the same compound?
A: begun losing weight

Q: What about the “fecal check (fat in stool)” value [5, 10] of the same compound?
A: large amount of fat

Q: What about the “qualitative fecal fat and trypsin-like immunoreactivity” value ([5]; dogs #490 and 494, 4.3 mg/kg/day) of the same compound?
A: confirmed the presence of exocrine pancreatic insufficiency

Q: And the weight loss [5, 11]?
A: 2 kg

Q: And the pancreas at necropsy ([5]; dogs #490 and 494, 4.3 mg/kg/day, one week after Viokase ceased)?
A: severely atrophied

Q: What about the “glucose levels (endocrine functionality)” value ([5]; dogs #490 and 494, 4.3 mg/kg/day, throughout the experiment) of the same compound?
A: normal

Q: What about the “histopathology of pancreas at necropsy” value ([6]; 4.3 mg/kg/day sc for 13 days, 52- to 64-days post-drug) of the same compound?
A: moderate to severe atrophy of the exocrine pancreases

Q: What about the alopecia [6, 12] of the same compound?
A: also noted

Q: And the “diagnosis from pancreatic function tests” value [6, 12]?
A: confirmed a diagnosis of exocrine pancreatic insufficiency

Q: And the “glucose tolerance test (endocrine pancreas)” value [6, 12]?
A: “normal” response

Q: And the “post-feeding serum samples after a fatty meal” value [6, 12]?
A: clear, indicating an inability to digest fats

Q: What about the clinical course ([6]; 4.3 mg/kg/day sc for 13 days, until euthanasia 52- to 64-days post-drug) of the same compound?
A: continued to deteriorate

Q: What about the “histology of pancreatic tissue samples” value ([6]; 10-days post-drug) of the same compound?
A: no histological abnormalities

Q: What about the TLI [6, 13] of the same compound?
A: began to decrease

Q: What about the “fecal trypsin test results” value [6, 13] of the same compound?
A: abnormal

Q: And the body weight ([6]; approximately five weeks post-drug, 4.3 mg/kg/day sc for 13 days, both dogs of group)?
A: began losing weight very rapidly

Q: And the “frank and/or occult blood in stool, found until” value [6, 14]?
A: about 17 days post-drug

Q: And the “loss of body weight at end of drug dosing period” value [6, 14]?
A: 1.4 kg

Q: And the clinical signs ([6]; dog #468, day thirteen of drug administration, 4.3 mg/kg/day sc, 4.3 mg/kg/day)?
A: bloody diarrhea and anorexia; also recorded: developed bloody diarrhea and stopped eating

Q: What about the “blood glucose level in glucose tolerance test” value ([6]; dog #468, returned to normal during the 3.5 hours) of the same compound?
A: exceeded 160 mg/dl

Q: What about the clinical signs [6, 15] of the same compound?
A: developed bloody diarrhea one-day post-drug

Q: And the “gain of body weight at end of drug dosing period” value [6, 15]?
A: 0.4 kg

Q: What about the “pancreas at necropsy, gross appearance” value ([6]; dogs #468 and 500, 52- and 58-days post-drug) of the same compound?
A: greatly atrophied (about one-fourth the control weight)
